Results published in patent publication US11332440B2, “4-oxo-alkylated tetramic acid compound, and preparation method thereof” (priority 2017, dated 2022).
Entries after “also recorded” stand apart in the source; their conditions may differ.

Assays:
[1] = system: Salmonella typhimurium TA98; experiment: Mini Ames experiment, strain TA98; type: cell-based; conditions: TA98, regardless of the presence or absence of S9
Experimental: Histidine auxotrophic strains of Salmonella typhimurium were cultured in a special medium with quite a low content of histidine. The strains were difficult to divide due to lack of nutrition. If a test compound has mutagenicity, a large number of cells will undergo reverse mutation, synthesizing histidine by themselves and developing into colonies visible to the naked eye. In view of the close relationship between mutagenicity and carcinogenesis of chemicals, this method has been widely used in screening carcinogens. Some chemicals need metabolic activation to induce mutagenicity. Mammalian microsomal enzyme S9 can be added into the test system to eliminate the influence of metabolic activation on generation of mutagenicity.
[…] Mini Ames test with compound 50561

[2] = Pharmacokinetic evaluation, plasma and brain concentrations; type: in vivo, ICR mice
Text: Distribution of a medicament in the body is one of the important indicators to determine the dose and efficacy of the medicament. Thus, excellent candidate compounds should have good pharmacokinetic characteristics. In addition, since the compound of the present invention is intended to be used for the treatment of Alzheimer's disease, which is a disease of the central nervous system, the distribution pattern of the compound in the brain and the blood is also one of the subjects to be investigated. In this experiment, compound 50561 was administered to mice […] or by gavage, and the concentrations of the compound in blood and brain were measured at specific time points to determine the pharmacokinetic parameters.
Forty-eight male ICR mice purchased from Shanghai Sippr-BK Lab. Animal Co. Ltd were used in this experiment. The oral group was fasted for 10-14 hours before administration, and feeding was restored 4 hours after administration. Samples were collected from the intravenous administration group 0.083 h, 0.25 h, 0.5 h, 1 h, 2 h, 4 h, 8 h, and 24 h after administration, respectively; while for the oral administration group, about 0.5 mL of blood was collected from the heart 0.25 h, 0.5 h, 1 h, 2 h, 4 h, 6 h, 8 h, and 24 h after administration, respectively. Heparin sodium was used for anticoagulation. Blood samples were collected and placed on ice, and plasma was separated by centrifugation (centrifugation conditions: 8000 rpm, 6 minutes, 4C). The collected plasma was stored at −80° C. before analysis. After collecting plasma samples, brain tissues were collected, washed with normal saline, water-absorbed by filter paper, weighed immediately, and then placed in labeled tubes (one tube for one brain tissue). The samples to be tested were temporarily placed on ice before being stored in a −80° C. refrigerator.
The analysis methods of biological samples and the analysis of all samples were done by Medicilon Pharmaceutical Technology (Shanghai) Co., Ltd. The intraday accuracy evaluation of the quality control samples was carried out while analyzing the samples, and the accuracy of over 66.7% of the quality control samples was required to be between 80-120%.
When calculating the pharmacokinetic parameters, the BLQ before Cmax (including “No peak”) was calculated as 0; BLQ occurring after Cmax (including “No peak”) was not involved in the calculation. WinNonlin Professional V 5.2 (Pharsight, USA) was adopted to calculate the following pharmacokinetic parameters: AUC(0-t), AUC(0-∞), T1/2, MRT(0-∞), Cmax, and Tmax. The tissue/plasma ratio was to be calculated by the following formula based on the blood concentration data at different time points: Tissue/plasma ratio (mL/g)=tissue blood concentration/plasma blood concentration.

For `O=C1C=C(OCc2ccc(F)cc2)[C@H](Cc2ccccc2)N1` [Compound 50561], the “change in the number of colonies / mutagenicity” value [1] was “did not cause more than twice of a change in the number of colonies; also recorded: no obvious mutagenicity”, the Brain/plasma ratio ([2]; IV 1 mg/kg, 0.083 hr, G1-1) was 2.604 mL/G and the Brain/plasma ratio ([2]; IV 1 mg/kg, 0.083 hr, G1-2) was 2.645 mL/G. The Brain/plasma ratio ([2]; IV 1 mg/kg, 0.083 hr, G1-3) was 2.249 mL/G, the Brain/plasma ratio ([2]; IV 1 mg/kg, 0.083 hr, Mean) was 2.499 mL/G and the Brain/plasma ratio ([2]; IV 1 mg/kg, 0.25 hr, G1-1) was 2.451 mL/G. For the same compound, the Brain/plasma ratio ([2]; IV 1 mg/kg, 0.25 hr, G1-2) was 2.415 mL/G, the Brain/plasma ratio ([2]; IV 1 mg/kg, 0.25 hr, G1-3) was 2.159 mL/G and the Brain/plasma ratio ([2]; IV 1 mg/kg, 0.25 hr, Mean) was 2.342 mL/G. It also gave a Brain/plasma ratio ([2]; IV 1 mg/kg, 0.5 hr, G1-1) of 2.540 mL/G, a Brain/plasma ratio ([2]; IV 1 mg/kg, 0.5 hr, G1-2) of 2.564 mL/G and a Brain/plasma ratio ([2]; IV 1 mg/kg, 0.5 hr, G1-3) of 2.361 mL/G. It also gave a Brain/plasma ratio ([2]; IV 1 mg/kg, 0.5 hr, Mean) of 2.488 mL/G, a Brain/plasma ratio ([2]; IV 1 mg/kg, 1 hr, G1-1) of 2.330 mL/G and a Brain/plasma ratio ([2]; IV 1 mg/kg, 1 hr, G1-2) of 3.941 mL/G. For the same compound, the Brain/plasma ratio ([2]; IV 1 mg/kg, 1 hr, G1-3) was 2.751 mL/G, the Brain/plasma ratio ([2]; IV 1 mg/kg, 1 hr, Mean) was 3.007 mL/G and the Blood concentration ([2]; IV 1 mg/kg, 2 hr, G1-1) was “BLQ”. The Brain tissue concentration ([2]; IV 1 mg/kg, 2 hr, G1-1) was “BLQ”, the Blood concentration ([2]; IV 1 mg/kg, 2 hr, G1-2) was “BLQ” and the Brain tissue concentration ([2]; IV 1 mg/kg, 2 hr, G1-2) was “BLQ”. The Blood concentration ([2]; IV 1 mg/kg, 2 hr, G1-3) was “BLQ”, the Brain tissue concentration ([2]; IV 1 mg/kg, 2 hr, G1-3) was “BLQ” and the Blood concentration ([2]; IV 1 mg/kg, 4 hr, G1-1) was “BLQ”. The Brain tissue concentration ([2]; IV 1 mg/kg, 4 hr, G1-1) was “BLQ”, the Blood concentration ([2]; IV 1 mg/kg, 4 hr, G1-2) was “BLQ” and the Brain tissue concentration ([2]; IV 1 mg/kg, 4 hr, G1-2) was “BLQ”. The Blood concentration ([2]; IV 1 mg/kg, 4 hr, G1-3) was “BLQ”, the Brain tissue concentration ([2]; IV 1 mg/kg, 4 hr, G1-3) was “BLQ” and the Blood concentration ([2]; IV 1 mg/kg, 8 hr, G1-1) was “BLQ”. For the same compound, the Brain tissue concentration ([2]; IV 1 mg/kg, 8 hr, G1-1) was “BLQ”, the Blood concentration ([2]; IV 1 mg/kg, 8 hr, G1-2) was “BLQ” and the Brain tissue concentration ([2]; IV 1 mg/kg, 8 hr, G1-2) was “BLQ”. The Blood concentration ([2]; IV 1 mg/kg, 8 hr, G1-3) was “BLQ”, the Brain tissue concentration ([2]; IV 1 mg/kg, 8 hr, G1-3) was “BLQ” and the Blood concentration ([2]; IV 1 mg/kg, 24 hr, G1-1) was “BLQ”. For the same compound, the Brain tissue concentration ([2]; IV 1 mg/kg, 24 hr, G1-1) was “BLQ”, the Blood concentration ([2]; IV 1 mg/kg, 24 hr, G1-2) was “BLQ” and the Brain tissue concentration ([2]; IV 1 mg/kg, 24 hr, G1-2) was “BLQ”. For the same compound, the Blood concentration ([2]; IV 1 mg/kg, 24 hr, G1-3) was “BLQ”, the Brain tissue concentration ([2]; IV 1 mg/kg, 24 hr, G1-3) was “BLQ” and the Brain/plasma ratio ([2]; PO 10 mg/kg, 0.25 hr, G2-1) was 1.948 mL/G. For the same compound, the Brain/plasma ratio ([2]; PO 10 mg/kg, 0.25 hr, G2-2) was 1.590 mL/G, the Brain/plasma ratio ([2]; PO 10 mg/kg, 0.25 hr, G2-3) was 2.093 mL/G and the Brain/plasma ratio ([2]; PO 10 mg/kg, 0.25 hr, Mean) was 1.877 mL/G. The Brain/plasma ratio ([2]; PO 10 mg/kg, 0.5 hr, G2-1) was 2.435 mL/G, the Brain/plasma ratio ([2]; PO 10 mg/kg, 0.5 hr, G2-2) was 2.027 mL/G and the Brain/plasma ratio ([2]; PO 10 mg/kg, 0.5 hr, G2-3) was 1.980 mL/G. For the same compound, the Brain/plasma ratio ([2]; PO 10 mg/kg, 0.5 hr, Mean) was 2.147 mL/G, the Brain/plasma ratio ([2]; PO 10 mg/kg, 1 hr, G2-1) was 2.485 mL/G and the Brain/plasma ratio ([2]; PO 10 mg/kg, 1 hr, G2-2) was 2.152 mL/G. It also gave a Brain/plasma ratio ([2]; PO 10 mg/kg, 1 hr, G2-3) of 2.158 mL/G, a Brain/plasma ratio ([2]; PO 10 mg/kg, 1 hr, Mean) of 2.265 mL/G and a Brain/plasma ratio ([2]; PO 10 mg/kg, 2 hr, G2-1) of 2.163 mL/G. For the same compound, the Brain/plasma ratio ([2]; PO 10 mg/kg, 2 hr, G2-2) was 2.454 mL/G, the Brain/plasma ratio ([2]; PO 10 mg/kg, 2 hr, G2-3) was 2.372 mL/G and the Brain/plasma ratio ([2]; PO 10 mg/kg, 2 hr, Mean) was 2.329 mL/G. For the same compound, the Brain/plasma ratio ([2]; PO 10 mg/kg, 4 hr, G2-1) was 2.373 mL/G, the Brain/plasma ratio ([2]; PO 10 mg/kg, 4 hr, G2-2) was 2.428 mL/G and the Brain/plasma ratio ([2]; PO 10 mg/kg, 4 hr, G2-3) was 1.355 mL/G. For the same compound, the Brain/plasma ratio ([2]; PO 10 mg/kg, 4 hr, Mean) was 2.052 mL/G, the Brain/plasma ratio ([2]; PO 10 mg/kg, 6 hr, G2-1) was 1.839 mL/G and the Brain/plasma ratio ([2]; PO 10 mg/kg, 6 hr, G2-2) was 2.764 mL/G. It also gave a Brain/plasma ratio ([2]; PO 10 mg/kg, 6 hr, G2-3) of 2.929 mL/G, a Brain/plasma ratio ([2]; PO 10 mg/kg, 6 hr, Mean) of 2.511 mL/G and a Brain/plasma ratio ([2]; PO 10 mg/kg, 8 hr, G2-1) of 1.575 mL/G. The Brain/plasma ratio ([2]; PO 10 mg/kg, 8 hr, G2-2) was 2.443 mL/G, the Brain tissue concentration ([2]; PO 10 mg/kg, 8 hr, G2-3) was “BLQ” and the Brain/plasma ratio ([2]; PO 10 mg/kg, 8 hr, Mean) was 2.009 mL/G. For the same compound, the Blood concentration ([2]; PO 10 mg/kg, 24 hr, G2-1) was “BLQ”, the Brain tissue concentration ([2]; PO 10 mg/kg, 24 hr, G2-1) was “BLQ” and the Blood concentration ([2]; PO 10 mg/kg, 24 hr, G2-2) was “BLQ”. For the same compound, the Brain tissue concentration ([2]; PO 10 mg/kg, 24 hr, G2-2) was “BLQ”, the Blood concentration ([2]; PO 10 mg/kg, 24 hr, G2-3) was “BLQ” and the Brain tissue concentration ([2]; PO 10 mg/kg, 24 hr, G2-3) was “BLQ”. The “blood-brain barrier permeability (content in brain tissue versus blood)” value ([2]; after intravenous injection and oral administration) was “good blood-brain barrier permeability” and the concentration at 0.083 h ([2]; male, ICR, mouse, brain, IV 1 mg/kg, 0.083 hr, G1-3, read-out: Brain tissue concentration) was 977 ng/g.
